Legend:
Type in all cases: cell-based, murine
32D-BCR-Abl = test: Apoptosis assay; design: unit not given here; conditions: approximately 3 days of treatment
Excerpt: (§1) Ba/F3.p210 cells were obtained by transfecting the IL-3-dependent marine hematopoietic Ba/F3 cell line with a pGD vector containing p210BCR-ABL (B2A2) cDNA (Daley and Baltimore, 1988; Sattler et al., 1996; Okuda et al., 1996). Murine hematopoietic 32D cells were transduced with retrovirus to express p210 Bcr-ABL (32D.p210 cells) (Matulonis et al., 1993); the 32D-T315I cell line was transfected by electroporation with the imatinib resistant BCR-ABL construct (pCI-neo Mammalian Expression Vector; Promega (#E1841) harboring the point mutation T315I (Weisberg et al., 2005). Ba/F3 cells were stably transfected by electroporation with imatinib-resistant BCR-ABL constructs (pCI-neo Mammalian Expression Vector; Promega (#E1841) harboring the point mutations T315I, F317L, F486S, and M351T; transfectants were selected for neomycin resistance and IL-3-independent growth (Weisberg et al., 2005). Ba/F3 cells were stably transfected by electroporation with BCR-ABL point mutants identified in a random mutagenesis screen for BCR-ABL point mutants conferring resistance to nilotinib: Q252H, E292K, Y253C, Y253H, E255K, and V289L (Ray et al., 2007). Ba/F3 cells were made to express Tel-PDGFRβ as described by Golub et al., 1994, and Carroll et al., 1996. Constructs of D842V-PDGFRα and V561D-PDGFRα cDNA cloned into pcDNA3.1 were stably transfected into Ba/F3 cells by electroporation, and cells were selected for neomycin resistance and IL3-independent growth as described by Weisberg et al., 2006.
(§2) All cell lines were cultured with 5% CO2 at 37° C. in RPMI (Mediatech, Inc., Herndon, Va.) with 10% fetal calf serum (FCS) and supplemented with 1% L-glutamine. Parental Ba/F3 cells were similarly cultured with 15% WEHI-conditioned medium as a source of IL-3. Transfected cell lines were cultured in media supplemented with 1 mg/ml G418.
(§3) Cell cycle analysis was performed using approximately 500,000 cells, which were centrifuged at 1500 rpm for 5 min, washed in PBS, and the pellet re-suspended in 500 μl of propidium iodide solution (50 μg/ml propidium iodide, 0.1% NP-40, 0.1% sodium citrate). The mixture was stored in the dark at 4° C. for a minimum of 15 min, and then analyzed by flow cytometry. Apoptosis of drug-treated cells was measured using the Annexin-V-Fluos Staining Kit (Boehringer Mannheim, Indianapolis).
(§4) Cells cultured in the presence or absence of drug were washed 1× with phosphate-buffered saline (PBS) and centrifuged for 5 min at 1500 rpm. Washed cell pellets were re-suspended in 100 μl of 20% Annexin-V-fluorescein labeling reagent and 20% propidium iodide (PI) in HEPES buffer. Cells were incubated for 15 min at room temperature, followed by dilution with 0.8 ml of HEPES buffer. Samples were then analyzed by flow cytometry. As controls, cells were incubated for 15 min with PI alone, Annexin-V-fluorescein labeling reagent alone, or HEPES buffer, and then diluted with HEPES buffer and analyzed by flow cytometry.

32D-BCR-Abl-T3151 = test: Apoptosis assay; design: unit not given here; conditions: approximately 3 days of treatment
Excerpt: as §1, §2, §3, §4

Ba/F3-PDGFRα-T674I [1] = test: Cell cycle analysis; conditions: 24 hours of treatment
Protocol: as §2, §3

Ba/F3-PDGFRα-T674M [2] = test: Cell cycle analysis; conditions: 24 hours of treatment
Protocol: as §2, §3

Ba/F3-kit-T6701 [3] = test: Cell cycle analysis; conditions: 24 hours of treatment
Protocol: as §2, §3

Ba/F3-PDGFRα-T674I [4] = test: Apoptosis assay; design: unit not given here; conditions: approximately 3 days of treatment
Protocol: as §2, §3, §4

Ba/F3-PDGFRα-T674M [5] = test: Apoptosis assay; design: unit not given here; conditions: approximately 3 days of treatment
Protocol: as §2, §3, §4

Ba/F3-kit-T6701 [6] = test: Apoptosis assay; design: unit not given here; conditions: approximately 3 days of treatment
Protocol: as §2, §3, §4

Ba/F3-PDGFRβ-T681I = test: Relative IC50 in PDGFR-expressing cell line; conditions: Mus musculus, 2.5-3 days, read-out: Relative IC50 range
Protocol: All compounds were initially dissolved in DMSO to make 10 mM stock solutions, and then were serially diluted to obtain final concentrations for in vitro experiments.
as §2

## CCN1CCN(Cc2ccc(NC(=O)c3cccc(-c4ccc5nc(NC(=O)C6CC6)sc5n4)c3)cc2C(F)(F)F)CC1 [Compound 2]
32D-BCR-Abl; 0.01 μM
  Apoptotic: 5.8
  Necrotic: 0.2
  Viable: 94
32D-BCR-Abl; 0.1 μM
  Apoptotic: 52.3
  Necrotic: 0.6
  Viable: 47.1
32D-BCR-Abl; 1.0 μM
  Apoptotic: 95.3
  Necrotic: 0.1
  Viable: 4.6
32D-BCR-Abl-T3151; 0.01 μM
  Apoptotic: 9.0
  Necrotic: 0.1
  Viable: 90.88
32D-BCR-Abl-T3151; 0.1 μM
  Apoptotic: 9.8
  Necrotic: 0.3
  Viable: 89.9
32D-BCR-Abl-T3151; 1.0 μM
  Apoptotic: 72.7
  Necrotic: 0
  Viable: 27.2
Ba/F3-PDGFRα-T674I [1]; 0.01 μM
  % G0G1: 57.30%
  % G2M: 5.98%
  % S: 36.72%
Ba/F3-PDGFRα-T674I [1]; 0.1 μM
  % G0G1: 64.90%
  % G2M: 5.82%
  % S: 29.28%
Ba/F3-PDGFRα-T674I [1]; 1.0 μM
  % G0G1: 77.55%
  % G2M: 7.16%
  % S: 15.29%
Ba/F3-PDGFRα-T674M [2]; 0.01 μM
  % G0G1: 40.81%
  % G2M: 7.41%
  % S: 51.78%
Ba/F3-PDGFRα-T674M [2]; 0.1 μM
  % G0G1: 72.37%
  % G2M: 3.62%
  % S: 24.01%
Ba/F3-PDGFRα-T674M [2]; 1.0 μM
  % G0G1: 79.92%
  % G2M: 2.46%
  % S: 17.61%
Ba/F3-kit-T6701 [3]; 0.01 μM
  % G0G1: 35.2%
  % G2M: 14.62%
  % S: 50.19%
Ba/F3-kit-T6701 [3]; 0.1 μM
  % G0G1: 29.01%
  % G2M: 16.54%
  % S: 54.45%
Ba/F3-kit-T6701 [3]; 1.0 μM
  % G0G1: 52.57%
  % G2M: 10.05%
  % S: 37.38%
Ba/F3-PDGFRα-T674I [4]; 0.01 μM
  Apoptotic: 38.1
  Necrotic: 0.1
  Viable: 61.9
Ba/F3-PDGFRα-T674I [4]; 0.1 μM
  Apoptotic: 84.7
  Necrotic: 0.2
  Viable: 15.2
Ba/F3-PDGFRα-T674I [4]; 1.0 μM
  Apoptotic: 94.1
  Necrotic: 0
  Viable: 5.8
Ba/F3-PDGFRα-T674M [5]; 0.01 μM
  Apoptotic: 9
  Necrotic: 0
  Viable: 91
Ba/F3-PDGFRα-T674M [5]; 0.1 μM
  Apoptotic: 65.2
  Necrotic: 0
  Viable: 34.7
Ba/F3-PDGFRα-T674M [5]; 1.0 μM
  Apoptotic: 86.80
  Necrotic: 0.1
  Viable: 13.2
Ba/F3-kit-T6701 [6]; 0.01 μM
  Apoptotic: 2.3
  Necrotic: 0
  Viable: 97.7
Ba/F3-kit-T6701 [6]; 0.1 μM
  Apoptotic: 3.1
  Necrotic: 0
  Viable: 96.9
Ba/F3-kit-T6701 [6]; 1.0 μM
  Apoptotic: 8.4
  Necrotic: 0
  Viable: 91.6
Ba/F3-PDGFRβ-T681I
  IC50: > 1000 nM
